One data set concerns HNO 97 cell line. The data set can be described thus: Growth inhibition of human HNO 97 cell line assessed as reduction in cell viability at 100 ug/ml by SRB colorimetric assay relative to control. Format: functional. To be noted: read-out: GI. (In general: The SRB assay estimates cell density from bound dye.)
For a further data set, the system named is MDA-MB-231. Kind of data set: Growth inhibition of human MDA-MB-231 cells assessed as reduction in cell viability at 100 ug/ml by SRB colorimetric assay relative to control. Format: functional. To be noted: read-out: GI.
The subject of another data set is HepG2. Kind of data set: Growth inhibition of human HepG2 cells assessed as reduction in cell viability at 100 ug/ml by SRB colorimetric assay relative to control. Format: functional. To be noted: read-out: GI.
For another data set, the system named is Huh-7. Kind of data set: Growth inhibition of human Huh-7 cells assessed as reduction in cell viability at 100 ug/ml by SRB colorimetric assay relative to control. To be noted: read-out: GI. Format: functional.
The test system of a further data set is PC-3. The data set can be described thus: Growth inhibition of human PC-3 cells assessed as reduction in cell viability at 100 ug/ml by SRB colorimetric assay relative to control. It is filed as functional. To be noted: read-out: GI.
The next data set deals with A-375. Kind of data set: Growth inhibition of human A-375 cells assessed as reduction in cell viability at 100 ug/ml by SRB colorimetric assay relative to control. It is filed as functional. To be noted: read-out: GI.
The test system of a further data set is MCF7. Kind of data set: Growth inhibition of human MCF7 cells assessed as reduction in cell viability at 100 ug/ml by SRB colorimetric assay relative to control. It is filed as functional. To be noted: read-out: GI.
In the next data set the test system is HCT-116. Kind of data set: Growth inhibition of human HCT-116 cells assessed as reduction in cell viability at 100 ug/ml by SRB colorimetric assay relative to control. It is filed as functional. To be noted: read-out: GI.
For a further data set, the system named is Caco-2. The data set can be described thus: Growth inhibition of human Caco-2 cells assessed as reduction in cell viability at 100 ug/ml by SRB colorimetric assay relative to control. Format: functional. To be noted: read-out: GI.
Another data set has as its system MG-63. Kind of data set: Growth inhibition of human MG-63 cells assessed as reduction in cell viability at 100 ug/ml by SRB colorimetric assay relative to control. Format: functional. To be noted: read-out: GI.
The test system of a further data set is NCI-H460. The data set can be described thus: Growth inhibition of human NCI-H460 cells assessed as reduction in cell viability at 100 ug/ml by SRB colorimetric assay relative to control. It is filed as functional. To be noted: read-out: GI.
The next data set has as its system A549. Kind of data set: Growth inhibition of human A549 cells assessed as reduction in cell viability at 100 ug/ml by SRB colorimetric assay relative to control. Format: functional. To be noted: read-out: GI.
A further data set has as its system BT-474. The data set can be described thus: Growth inhibition of human BT-474 cells assessed as reduction in cell viability at 100 ug/ml by SRB colorimetric assay relative to control. Format: functional. To be noted: read-out: GI.
A short description of data set [1]: Growth inhibition of human Oral epithelial cell assessed as reduction in cell viability at 100 ug/ml by SRB colorimetric assay relative to control. To be noted: oral epithelial cells, at 100 µg/mL, read-out: GI. Format: toxicity, cell-based.

Turning to `NC1=Nc2nc3ccccc3n2C(c2ccc3ccccc3c2)N1` (stereo unspecified), the inhibition of growth at 100 µg/mL worked out at 57.3% in the data set with HNO 97 cell line; 66.6% in the data set with MDA-MB-231; 45% in the data set with HepG2; 54.6% in the data set on Huh-7; 54.8% in the data set on PC-3; 44.1% in the data set with A-375. Also, the inhibition of growth at 100 µg/mL in the data set with MCF7 came to 48.8%; with HCT-116, 50.2%; in the data set with Caco-2, 61%; with MG-63 it was 58.6%; in the data set with NCI-H460 it was 65%; with A549, 56.7%. Also, the inhibition of growth at 100 µg/mL in the data set with BT-474 was 55.3%. In [1], the inhibition at 100 ug/ml turned out to be 55.7%.

For `CN(C)c1ccc(C2NC(N)=Nc3nc4ccccc4n32)cc1` (stereo unspecified), the inhibition of growth at 100 µg/mL in the data set with HNO 97 cell line is 80.8%; with MDA-MB-231, 61%; in the data set on HepG2, 78.8%; with Huh-7, 70%; in the data set on PC-3, 57.5%; with A-375, 68.5%. The inhibition of growth at 100 µg/mL with MCF7 stood at 63.2%; with HCT-116, 64.1%; in the data set on Caco-2, 64%; with MG-63 it was 58%; with NCI-H460 it was 70.9%; with A549, 67.7%. Also, the inhibition of growth at 100 µg/mL in the data set on BT-474 came out at 60.1%. The inhibition at 100 ug/ml in [1] is 14.2%.

Take `COc1ccc(OC)c(C2N=C(N)Nc3nc4ccccc4n32)c1` (stereo unspecified): the inhibition of growth at 100 µg/mL in the data set on HNO 97 cell line worked out at 76.6%; in the data set with MDA-MB-231, 64.9%; in the data set with HepG2, 63.6%; with Huh-7, 54.8%; with PC-3, 46%; in the data set on A-375 it was 52.1%. For the same compound, the inhibition of growth at 100 µg/mL came out at 54.4% with MCF7; 49.3% in the data set with HCT-116; 52.5% in the data set with Caco-2; 46.8% in the data set with MG-63; 63.2% in the data set on NCI-H460; 54.9% in the data set with A549. Also, the inhibition of growth at 100 µg/mL with BT-474 was 46.3%. Further, the inhibition at 100 ug/ml in data set [1] stood at 10.2%.

`NC1=Nc2nc3ccccc3n2C(c2ccc([N+](=O)[O-])cc2)N1` (stereo unspecified): the inhibition of growth at 100 µg/mL was found to be 70.4% with HNO 97 cell line; 74.6% in the data set on MDA-MB-231; 74.3% in the data set with HepG2; 56.9% with Huh-7; 61.2% with PC-3; 58.6% with A-375. Also, the inhibition of growth at 100 µg/mL is 61.2% in the data set with MCF7; 61.3% in the data set on HCT-116; 65.9% in the data set with Caco-2; 53.4% in the data set with MG-63; 74.7% in the data set on NCI-H460; 65.6% with A549. The inhibition of growth at 100 µg/mL in the data set with BT-474 stood at 60.2%. Besides, the inhibition at 100 ug/ml in data set [1] was 40.3%.

In the case of `Cc1ccc(C2NC(N)=Nc3nc4ccccc4n32)o1` (stereo unspecified), the inhibition of growth at 100 µg/mL came out at 57.5% with HNO 97 cell line; 27.4% in the data set with MDA-MB-231; 61.5% with HepG2; 50% with Huh-7; 55.2% in the data set with PC-3; 58.5% with A-375. In addition, the inhibition of growth at 100 µg/mL with MCF7 was determined as 51.6%; with HCT-116 it was 60.9%; in the data set on Caco-2, 56.2%; in the data set on MG-63, 50.6%; in the data set on NCI-H460, 61.6%; in the data set with A549 it was 56.2%. The inhibition of growth at 100 µg/mL in the data set on BT-474 was 13.2%. For the same compound, the inhibition at 100 ug/ml in data set [1] came to 59.7%.

For `NC1=NC(c2cccnc2)n2c(nc3ccccc32)N1` (stereo unspecified), the inhibition of growth at 100 µg/mL came to 64.8% in the data set on HNO 97 cell line; 30.5% in the data set with MDA-MB-231; 67.8% in the data set on HepG2; 57.2% in the data set with Huh-7; 52.2% with PC-3; 56% with A-375. Besides, the inhibition of growth at 100 µg/mL was 60.7% with MCF7; 65.2% with HCT-116; 53.7% in the data set on Caco-2; 42.4% in the data set with MG-63; 58.1% in the data set with NCI-H460; 55.6% with A549. Further, in the data set on BT-474, the inhibition of growth at 100 µg/mL stood at 0.93%. Also, the inhibition at 100 ug/ml in data set [1] was found to be 52.7%.

For the compound `COc1cc(C2NC(N)=Nc3nc4ccccc4n32)cc(OC)c1OC` (stereo unspecified), the inhibition of growth at 100 µg/mL in the data set on HNO 97 cell line turned out to be 82.2%; with MDA-MB-231, 79.4%; in the data set on HepG2, 73.9%; in the data set on Huh-7, 70.1%; in the data set on PC-3 it was 60%; with A-375 it was 61.8%. The inhibition of growth at 100 µg/mL came out at 72% in the data set on MCF7; 63.6% in the data set with HCT-116; 69% in the data set on Caco-2; 59.4% in the data set with MG-63; 69.6% with NCI-H460; 67.5% in the data set on A549. Also, the inhibition of growth at 100 µg/mL in the data set on BT-474 is 69.9%. Besides, the inhibition at 100 ug/ml in data set [1] came to 32.7%.

Turning to `NC1=Nc2nc3ccccc3n2C(c2cccs2)N1` (stereo unspecified), the inhibition of growth at 100 µg/mL with HNO 97 cell line was 71.8%; in the data set with MDA-MB-231 it was 38.7%; in the data set with HepG2, 64.9%; in the data set on Huh-7, 65%; with PC-3, 48%; in the data set on A-375, 56.4%. For the same compound, the inhibition of growth at 100 µg/mL was determined as 56.2% in the data set with MCF7; 64.4% in the data set on HCT-116; 62.9% in the data set with Caco-2; 49.9% with MG-63; 58.8% in the data set with NCI-H460; 61.4% with A549. Further, in the data set on BT-474, the inhibition of growth at 100 µg/mL is 5.76%. For the same compound, the inhibition at 100 ug/ml in data set [1] came to 59.6%.

For the compound `NC1=Nc2nc3ccccc3n2C(c2c[nH]c3ccccc23)N1` (stereo unspecified), the inhibition of growth at 100 µg/mL is 75.3% in the data set with HNO 97 cell line; 34.3% with MDA-MB-231; 69.2% in the data set on HepG2; 65.3% with Huh-7; 54.2% in the data set on PC-3; 69.2% in the data set with A-375. Moreover, the inhibition of growth at 100 µg/mL is 56.5% in the data set with MCF7; 64.3% in the data set on HCT-116; 61.7% with Caco-2; 56.2% in the data set with MG-63; 63.5% with NCI-H460; 58.8% in the data set with A549. Also, the inhibition of growth at 100 µg/mL in the data set with BT-474 was found to be 34.4%. In addition, the inhibition at 100 ug/ml in [1] was 51.3%.

(Values after ChEMBL document CHEMBL5625190, “Novel fused imidazotriazines acting as promising top. II inhibitors and apoptotic inducers with greater selectivity against head and neck tumors: Design, synthesis, and biological assessments” (Eur J Med Chem, 2023).)
